# Laboratory results from publication PMC7782793, “Hydroxamic acid-modified peptide microarrays for profiling isozyme-selective interactions and inhibition of histone deacetylases” (Nature Communications, 2021).
# Where “and” joins values, the source holds several entries; their conditions need not be identical. Equal values may be shown once. Marks after values point to notes of the source that are not given here. Non-standard residues stand in square brackets, D forms with d. Residues, ends and D or L forms follow the SMILES beside them. *: point of attachment. Asu = N[C@@H](CCCCCC(=O)O)C(=O)O; NHOH = ON*
# How the values were obtained:
# HDAC1 [1] = molecular target: T1, HDAC1 (Homo sapiens, UniProt Q13547); test: Recombinant HDAC µSPOT microarray binding assay;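 further: slides with spotted peptides incubated with six HDAC concentrations in HEPES buffer pH 7.4, spot intensities fitted by four-parameter logistic, EC50 as enzyme concentration giving half-maximal binding signal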
# T1 construct: HDAC1 (full length, C-terminal His tag, C-terminal FLAG tag, BPS Bioscience, cat. #: 50051); FLAG (C); purchased BPS Bioscience 50051
# T1 sequence (Q13547 whole entry): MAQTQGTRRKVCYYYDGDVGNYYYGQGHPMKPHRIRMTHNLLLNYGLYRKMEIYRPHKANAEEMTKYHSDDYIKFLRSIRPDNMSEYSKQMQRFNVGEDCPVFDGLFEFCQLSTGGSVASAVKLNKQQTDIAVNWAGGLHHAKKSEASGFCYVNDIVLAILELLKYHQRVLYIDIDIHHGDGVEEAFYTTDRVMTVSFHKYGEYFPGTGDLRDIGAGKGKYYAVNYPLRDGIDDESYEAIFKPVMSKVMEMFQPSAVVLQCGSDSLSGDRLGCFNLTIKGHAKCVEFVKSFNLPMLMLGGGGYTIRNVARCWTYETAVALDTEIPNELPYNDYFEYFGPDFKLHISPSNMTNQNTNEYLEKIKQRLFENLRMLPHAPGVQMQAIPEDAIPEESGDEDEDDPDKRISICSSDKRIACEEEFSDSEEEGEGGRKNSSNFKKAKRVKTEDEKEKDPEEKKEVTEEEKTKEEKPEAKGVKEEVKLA
# HDAC2 [2] = molecular target: T2, HDAC2 (Homo sapiens, UniProt Q92769); test: Recombinant HDAC µSPOT microarray binding assay;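 further: Cellulose-bound peptide spots on slides incubated with six HDAC enzyme concentrations, binding intensity read, four-parameter variable-slope fit, EC50 is enzyme concentration giving half-maximal binding, in HEPES buffer pH 7.4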
# T2 construct: HDAC2 (full length, C-terminal His tag, BPS Bioscience, cat. #: 50002); purchased BPS Bioscience 50002
# T2 sequence (Q92769 whole entry): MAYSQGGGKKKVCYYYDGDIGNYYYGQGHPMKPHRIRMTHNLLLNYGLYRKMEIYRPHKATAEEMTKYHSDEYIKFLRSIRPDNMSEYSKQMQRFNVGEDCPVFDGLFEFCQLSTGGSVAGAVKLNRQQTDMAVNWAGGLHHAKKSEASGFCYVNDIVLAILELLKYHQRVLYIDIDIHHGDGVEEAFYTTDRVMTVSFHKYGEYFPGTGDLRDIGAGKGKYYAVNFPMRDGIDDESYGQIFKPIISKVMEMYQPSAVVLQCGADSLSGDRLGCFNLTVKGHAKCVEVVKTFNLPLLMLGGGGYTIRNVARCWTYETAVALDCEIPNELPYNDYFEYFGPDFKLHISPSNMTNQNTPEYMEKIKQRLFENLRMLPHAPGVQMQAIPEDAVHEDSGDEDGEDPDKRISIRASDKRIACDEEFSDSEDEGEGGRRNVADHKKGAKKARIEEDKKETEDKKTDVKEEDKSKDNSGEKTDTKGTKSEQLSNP
# HDAC3/NCoR2 [3] = molecular target: T3, HDAC3/NCoR2 (Homo sapiens, UniProt O15379); test: Recombinant HDAC µSPOT microarray binding assay;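 further: peptide spots on cellulose slides incubated with rising HDAC enzyme concentrations, imaged together, four-parameter logistic fit, EC50 is enzyme concentration giving half-maximal binding signal, two experiments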
# T3 construct: HDAC3/NCoR2 (full length, C-terminal His tag, NCoR2 N-terminal GST tag); purchased BPS Bioscience 50003
# T3 sequence (O15379 whole entry): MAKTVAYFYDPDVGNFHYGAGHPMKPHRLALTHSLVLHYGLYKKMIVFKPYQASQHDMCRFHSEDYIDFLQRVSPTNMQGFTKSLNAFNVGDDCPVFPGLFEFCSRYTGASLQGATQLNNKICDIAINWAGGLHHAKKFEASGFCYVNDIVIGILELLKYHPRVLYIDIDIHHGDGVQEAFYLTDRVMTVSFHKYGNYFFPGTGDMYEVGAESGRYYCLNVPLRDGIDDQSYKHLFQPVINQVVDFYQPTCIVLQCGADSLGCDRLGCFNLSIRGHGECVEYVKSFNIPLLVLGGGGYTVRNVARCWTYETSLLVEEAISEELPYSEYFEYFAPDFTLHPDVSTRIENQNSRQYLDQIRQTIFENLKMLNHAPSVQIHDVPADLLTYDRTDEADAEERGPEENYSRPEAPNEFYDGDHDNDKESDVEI
# T3 sequence (Q9Y618 389-480 partner limits assumed): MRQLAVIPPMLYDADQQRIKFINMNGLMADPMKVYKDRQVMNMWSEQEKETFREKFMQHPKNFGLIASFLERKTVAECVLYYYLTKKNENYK
# Protocol: Experiments were performed twice, data were obtained with Array Analyze software (Active Motif), and data analysis and representation were performed with the GraphPad Prism 7 software. Outliers were curated manually and data were fitted to nonlinear regression [log(agonist) vs. response—variable slope (four parameters)]. […] Non-sigmoidal curves were denoted as not determined (N.D.) The pEC50 values were determined as the concentration of HDAC enzyme required for half-maximal binding signal.
# HDAC8 [4] = molecular target: T4, HDAC8 (Homo sapiens, UniProt Q9BY41); test: Recombinant HDAC µSPOT microarray binding assay;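 further: peptide µSPOT slides incubated with varying HDAC enzyme concentrations, imaged signal intensity fitted by four-parameter variable-slope regression, EC50 is enzyme concentration giving half-maximal binding, pH 7.4 HEPES buffer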
# T4 construct: HDAC8 (full length, C-terminal His tag, BPS Bioscience, cat. #: 50008); purchased BPS Bioscience 50008
# T4 sequence (Q9BY41 1-377): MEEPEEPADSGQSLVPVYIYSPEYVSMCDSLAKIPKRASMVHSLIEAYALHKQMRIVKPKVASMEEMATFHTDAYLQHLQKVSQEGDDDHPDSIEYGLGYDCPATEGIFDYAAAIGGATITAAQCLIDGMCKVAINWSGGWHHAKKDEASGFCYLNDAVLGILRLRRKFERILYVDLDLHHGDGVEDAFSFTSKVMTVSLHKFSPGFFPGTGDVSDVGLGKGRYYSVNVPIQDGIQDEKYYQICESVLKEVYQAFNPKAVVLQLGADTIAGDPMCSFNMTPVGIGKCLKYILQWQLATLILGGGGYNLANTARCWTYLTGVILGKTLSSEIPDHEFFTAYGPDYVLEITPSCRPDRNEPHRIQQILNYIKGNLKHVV
# HDAC1 [5] = molecular target: T1, HDAC1; test: HDAC inhibition assay (fluorogenic, Ac-Leu-Gly-Lys(Ac)-AMC); assay type: biochemical; settings: for HDAC1 dose-response data (relative enzyme activity), Fig. 6 + S. Fig. 10: duplicate columns
# HDAC2 [6] = molecular target: T2, HDAC2; test: as above; assay type: biochemical; settings: for HDAC2 dose-response data (relative enzyme activity), Fig. 6 + S. Fig. 10: duplicate columns
# HDAC3/NCoR2 [7] = molecular target: T3, HDAC3/NCoR2; test: as above; assay type: biochemical; settings: for HDAC3 dose-response data (relative enzyme activity), Fig. 6 + S. Fig. 10: duplicate columns
# HDAC8 [8] = molecular target: T4, HDAC8; test: HDAC inhibition assay (fluorogenic, Ac-Leu-Gly-Lys(Tfa)-AMC); assay type: biochemical; settings: for HDAC8 dose-response data (relative enzyme activity, replicate values), Fig. 6 + S. Fig. 10: two replicate columns per inhibitor; for HDAC8 dose-response data (relative enzyme activity), Fig. 6 + S. Fig. 10: duplicate columns
# HDACs 1‒3 and 8 = test: HDAC inhibition assays, statements across several class I isozymes; assay type: biochemical, human; settings: across the HDACs named in the sentence
# [9] = log[inhibitor(M)] -10,5850266520292*, whole line marked with asterisks
smiles,measurement,setting,value
CC(=O)N1CCC[C@H]1C(=O)N[C@@H](CCCNC(=N)N)C(=O)N[C@@H](CCCCN)C(=O)N[C@@H](CCC(N)=O)C(=O)N[C@@H](CC(C)C)C(=O)N[C@@H](C)C(=O)N[C@H](C(=O)N[C@@H](CCCCN)C(=O)N[C@@H](C)C(=O)N[C@@H](C)C(=O)N[C@@H](CCCNC(=N)N)C(=O)N[C@@H](CCCCCC(=O)NO)C(=O)N[C@@H](CO)C(=O)N[C@@H](C)C(=O)N1CCC[C@H]1C(=O)N[C@@H](C)C(=O)N[C@@H](Cc1c[nH]c2ccccc12)C(N)=O)[C@@H](C)O [14a] (Ac-PRKQLATKAAR[Asu](NHOH)SAPAW-NH2),EC50,HDAC1 [1],0.00912 µM
same,EC50,HDAC2 [2],0.00282 µM
same,EC50,HDAC3/NCoR2 [3],0.00295 µM
same,EC50,HDAC8 [4],0.00302 µM
same,Ki,HDAC1 [5],0.0247 ± 0.0005 µM
same,"HDAC1 dose-response data (relative enzyme activity), Fig. 6 + S. Fig. 10",HDAC1 [5]; log[inhibitor(M)] -5,15.0147 and 10.9187
same,"HDAC1 dose-response data (relative enzyme activity), Fig. 6 + S. Fig. 10",HDAC1 [5]; log[inhibitor(M)] -5.69897,14.0922 and 20.0402
same,"HDAC1 dose-response data (relative enzyme activity), Fig. 6 + S. Fig. 10",HDAC1 [5]; log[inhibitor(M)] -6.39794,32.9512 and 39.8845
same,"HDAC1 dose-response data (relative enzyme activity), Fig. 6 + S. Fig. 10",HDAC1 [5]; log[inhibitor(M)] -7.79588,81.8715 and 100.09
same,"HDAC1 dose-response data (relative enzyme activity), Fig. 6 + S. Fig. 10",HDAC1 [5]; log[inhibitor(M)] -8.49485,94.0176 and 111.23
same,"HDAC1 dose-response data (relative enzyme activity), Fig. 6 + S. Fig. 10",HDAC1 [5]; log[inhibitor(M)] -9.19382,106.697 and 107.189
same,"HDAC1 dose-response data (relative enzyme activity), Fig. 6 + S. Fig. 10",HDAC1 [5]; log[inhibitor(M)] -9.89279,102.41 and 107.234
same,"HDAC1 dose-response data (relative enzyme activity), Fig. 6 + S. Fig. 10",HDAC1 [5]; [9],"103,6577* and 97,95181*"
same,"HDAC2 dose-response data (relative enzyme activity), Fig. 6 + S. Fig. 10",HDAC2 [6]; log[inhibitor(M)] -5,11.6652 and 17.3045
same,"HDAC2 dose-response data (relative enzyme activity), Fig. 6 + S. Fig. 10",HDAC2 [6]; log[inhibitor(M)] -5.69897,34.222 and 35.4537
same,"HDAC2 dose-response data (relative enzyme activity), Fig. 6 + S. Fig. 10",HDAC2 [6]; log[inhibitor(M)] -7.79588,103.08 and 94.3091
same,"HDAC2 dose-response data (relative enzyme activity), Fig. 6 + S. Fig. 10",HDAC2 [6]; [9],"107,4969* and 95,99841*"
same,Ki,"HDAC2 [6]; resynthesized peptide in solution, Cheng-Prusoff, n = 2",0.098 ± 0.001 µM
same,Ki,HDAC3/NCoR2 [7],0.0168 ± 0.0002 µM
same,"HDAC3 dose-response data (relative enzyme activity), Fig. 6 + S. Fig. 10",HDAC3/NCoR2 [7]; log[inhibitor(M)] -4.30103,0.8181 and 0.573
same,"HDAC3 dose-response data (relative enzyme activity), Fig. 6 + S. Fig. 10",HDAC3/NCoR2 [7]; log[inhibitor(M)] -5,3.641 and 2.7786
same,"HDAC3 dose-response data (relative enzyme activity), Fig. 6 + S. Fig. 10",HDAC3/NCoR2 [7]; log[inhibitor(M)] -5.69897,13.6613 and 10.1867
same,"HDAC3 dose-response data (relative enzyme activity), Fig. 6 + S. Fig. 10",HDAC3/NCoR2 [7]; log[inhibitor(M)] -6.39794,32.1253 and 23.5469
same,"HDAC3 dose-response data (relative enzyme activity), Fig. 6 + S. Fig. 10",HDAC3/NCoR2 [7]; log[inhibitor(M)] -7.09691,54.9619 and 43.4084
same,"HDAC3 dose-response data (relative enzyme activity), Fig. 6 + S. Fig. 10",HDAC3/NCoR2 [7]; log[inhibitor(M)] -7.79588,82.3244 and 70.9683
same,"HDAC3 dose-response data (relative enzyme activity), Fig. 6 + S. Fig. 10",HDAC3/NCoR2 [7]; log[inhibitor(M)] -8.49485,99.6485 and 88.5218
same,"HDAC3 dose-response data (relative enzyme activity), Fig. 6 + S. Fig. 10",HDAC3/NCoR2 [7]; log[inhibitor(M)] -9.19382,108.712 and 95.7391
same,"HDAC3 dose-response data (relative enzyme activity), Fig. 6 + S. Fig. 10",HDAC3/NCoR2 [7]; log[inhibitor(M)] -9.89279,105.572 and 99.3991
same,"HDAC3 dose-response data (relative enzyme activity), Fig. 6 + S. Fig. 10",HDAC3/NCoR2 [7]; [9],"106,3724* and 79,46551*"
same,Ki,HDAC8 [8],0.055 ± 0.0007 µM
same,"HDAC8 dose-response data (relative enzyme activity, replicate values), Fig. 6 + S. Fig. 10",HDAC8 [8]; Inhibitor conc [M] -8.49485 (log),89.9056 and 98.262
same,"HDAC8 dose-response data (relative enzyme activity, replicate values), Fig. 6 + S. Fig. 10",HDAC8 [8]; Inhibitor conc [M] -9.19382 (log),96.4725 and 98.8615
same,"HDAC8 dose-response data (relative enzyme activity, replicate values), Fig. 6 + S. Fig. 10",HDAC8 [8]; Inhibitor conc [M] given as -7.09691 (log),43.1119 and 55.3592
same,"HDAC8 dose-response data (relative enzyme activity, replicate values), Fig. 6 + S. Fig. 10",HDAC8 [8]; Inhibitor conc [M] given as -7.79588 (log),72.8593 and 80.9184
same,"HDAC8 dose-response data (relative enzyme activity, replicate values), Fig. 6 + S. Fig. 10",HDAC8 [8]; Inhibitor conc [M] given as -9.89279 (log),99.4729 and 100.504
same,"HDAC8 dose-response data (relative enzyme activity), Fig. 6 + S. Fig. 10",HDAC8 [8]; Inhibitor conc [M] -4.30103,2.477 and 2.544
same,"HDAC8 dose-response data (relative enzyme activity), Fig. 6 + S. Fig. 10",HDAC8 [8]; Inhibitor conc [M] -5,8.237 and 8.756
same,"HDAC8 dose-response data (relative enzyme activity), Fig. 6 + S. Fig. 10",HDAC8 [8]; Inhibitor conc [M] -5.69897,16.1631 and 21.2375
same,"HDAC8 dose-response data (relative enzyme activity), Fig. 6 + S. Fig. 10",HDAC8 [8]; Inhibitor conc [M] -6.39794,27.7385 and 36.3881
same,HDAC8 inhibition in words,HDAC8 [8]; in solution,robust nanomolar potency
same,inhibitory potency in words,HDACs 1‒3 and 8,inhibited all four isozymes with similar potency
